Measurements reported in patent publication US8691855B2, “Compounds, isomer thereof, or pharmaceutically acceptable salts thereof as vanilloid receptor antagonist and pharmaceutical compositions containing the same” (Amorepacific Corporation, priority 2008, dated 2014).

Biological target: T1, vanilloid receptor (Rattus norvegicus, UniProt O35433)
T1 construct: DRG nerve cells from the primary culture of 2 days were equilibrated; endogenous in cells; host or cells: primary culture of dorsal root ganglion neurons from neonatal SD rats
T1 sequence (O35433 whole entry): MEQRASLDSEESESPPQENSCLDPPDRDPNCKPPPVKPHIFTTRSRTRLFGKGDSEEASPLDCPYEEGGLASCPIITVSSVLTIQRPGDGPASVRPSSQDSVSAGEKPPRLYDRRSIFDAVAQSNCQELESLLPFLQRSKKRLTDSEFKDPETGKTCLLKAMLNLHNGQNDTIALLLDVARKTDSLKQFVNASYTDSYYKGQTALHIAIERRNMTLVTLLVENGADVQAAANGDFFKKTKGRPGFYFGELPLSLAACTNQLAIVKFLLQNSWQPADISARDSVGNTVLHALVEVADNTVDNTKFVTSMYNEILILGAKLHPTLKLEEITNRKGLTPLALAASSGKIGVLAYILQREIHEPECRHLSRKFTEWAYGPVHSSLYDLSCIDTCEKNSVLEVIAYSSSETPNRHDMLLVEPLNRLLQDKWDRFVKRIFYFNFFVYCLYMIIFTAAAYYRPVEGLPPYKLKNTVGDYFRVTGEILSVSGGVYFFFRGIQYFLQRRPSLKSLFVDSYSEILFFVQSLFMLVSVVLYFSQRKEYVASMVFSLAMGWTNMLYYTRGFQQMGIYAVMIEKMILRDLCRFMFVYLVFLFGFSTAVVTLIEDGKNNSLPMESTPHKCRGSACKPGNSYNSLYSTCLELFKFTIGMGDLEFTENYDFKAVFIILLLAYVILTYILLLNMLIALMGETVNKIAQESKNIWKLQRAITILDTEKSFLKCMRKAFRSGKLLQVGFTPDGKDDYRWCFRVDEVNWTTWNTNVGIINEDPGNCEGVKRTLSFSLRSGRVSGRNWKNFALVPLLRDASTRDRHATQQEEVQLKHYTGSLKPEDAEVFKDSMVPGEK
Assay: 45Ca influx test (antagonist calcium uptake test) in rat DRG neurons stimulated with capsaicin
Format: cell-based
Details: neonatal SD rat DRG neurons, capsaicin 0.5 μM; for IC50: 45Ca
Experimental: 1) Separation of spinal dorsal root ganglia (DRG) in newborn rats and primary culture thereof
Neonatal (2-3 clay old or younger than 2-3 day old) SD rats were put in ice for 5 minutes to anesthetize and disinfected with 70% ethanol. DRG of all part of spinal cord were dissected (Wood et al., 1988, J. Neurosci. 8, pp 3208-3220) and collected in DME/F12 medium to which 1.2 g/l sodium bicarbonate and 50 mg/l gentamycin were added. The DRG were incubated sequentially at 37° C. for 30 mins in 200 U/ml collagenase and 2.5 mg/ml trypsin, separately. The ganglia were washed twice with DME/F12 medium supplemented with 10% horse serum, triturated through a fire-polished Pasteur pipette, filtered through Nitex 80 membrane to obtain single cell suspension and the suspension was washed once more. This was subjected to centrifugation, then resuspended in cell culture medium at certain level of cell density. As the cell culture medium, DME/F12 medium supplemented with 10% horse serum was diluted with identical medium conditioned by C6 glioma cells 2 clays on a confluent monolayer (1:1), and NGF (Nerve Growth Factor) was added to adjust 200 ng/ml as final concentration. After the cells were grown 2 days in medium where cytosine arabinoside (Ara-C, 100 μM) was added to kill dividing nonneuronal cells, medium was changed to one without Ara-C. The resuspended cells were plated at a density of 1500-2000 neurons/well onto Terasaki plates previously coated with 10 μg/ml poly-D-ornithine.
2) ^45Ca Influx Experiments
DRG nerve cells from the primary culture of 2 days were equilibrated by washing 4 times with HEPES (10 mM, pH 7.4)-buffered Ca^2+, Mg^2+-free HBSS (H-HBSS). The solution in each well was removed from the individual well. Medium containing the test compound plus capsaicin (final concentration 0.5 μM) and ^45Ca (final concentration 10 μCi/ml) in H-HBSS was added to each well and incubated at room temperature for 10 nuns. Terasaki plates were washed five times with H-HBSS and dried at room temperature. To each well, 0.3% SDS (10 μl) was added to elute ^45Ca. After the addition of scintillation cocktail of into each well, the amount of ^45Ca influx into neuron was measured by counting radioactivity. Antagonistic activities of test compounds against vanilloid receptor were calculated as percent of the inhibition of maximal response of capsaicin at a concentration of 0.5 μM.

| SMILES | IC50 [µM] | inhibition at 3 µM (DRG neuron, @3 μM, read-out: Antagonist Calcium Uptake Test, percent inhibition of capsaicin response) [%] |
| --- | --- | --- |
| CC(C)c1ccc(I)c(Oc2nc(C(=O)N[C@H](C)c3cc(F)c(NS(C)(=O)=O)c(F)c3)co2)c1 [Example 52, 2-(2-Iodo-5-isopropyl-phenoxy)-oxazole-4-carboxylic acid [1-(3,5-difluoro-4-methanesulfonylamino-phenyl)-ethyl]-amide] | 1.8 |  |
| C[C@@H](NC(=O)c1coc(Oc2cc(C(F)(F)F)ccc2Cl)n1)c1cc(F)c(NS(C)(=O)=O)c(F)c1 [Example 53, 2-(2-Chloro-5-trifluoromethyl-phenoxy)-oxazole-4-carboxylic acid [1-(3,5-difluoro-4-methanesulfonylamino-phenyl)-ethyl]-amide] | 0.72 |  |
| C[C@@H](NC(=O)c1coc(Oc2cc(C(F)(F)F)ccc2C2CC2)n1)c1cc(F)c(NS(C)(=O)=O)c(F)c1 [Example 54, 2-(2-Cyclopropyl-5-trifluoromethyl-phenoxy)-oxazole-4-carboxylic acid [1-(3,5-difluoro-4-methanesulfonylamino-phenyl)-ethyl]-amide] | 2.9 |  |
| C[C@@H](NC(=O)c1coc(Oc2cccc(C3CCC3)c2)n1)c1cc(F)c(NS(C)(=O)=O)c(F)c1 [Example 56, 2-(3-Cyclobutyl-phenoxy)-oxazole-4-carboxylic acid [1-(3,5-difluoro-4-methanesulfonylamino-phenyl)-ethyl]-amide] | 0.56 |  |
| C[C@@H](NC(=O)c1coc(Oc2cccc(I)c2)n1)c1cc(F)c(NS(C)(=O)=O)c(F)c1 [Example 58, 2-(3-Iodo-phenoxy)-oxazole-4-carboxylic acid [1-(3,5-difluoro-4-methanesulfonylamino-phenyl)-ethyl]-amide] | 0.093 |  |
| CC(C)c1cccc(Oc2ccc(C(=O)N[C@H](C)c3cc(F)c(NS(C)(=O)=O)c(F)c3)o2)c1 [Example 59, 5-(3-Isopropyl-phenoxy)-furan-2-carboxylic acid [1-(3,5-difluoro-4-methanesulfonylamino-phenyl)-ethyl]-amide] | 1 |  |
| CS(=O)(=O)Nc1c(F)cc(CNC(=O)c2ccc(-c3ccc(C(F)(F)F)cc3)s2)cc1F [Example 60, 5-(4-Trifluoromethyl-phenyl)-thiophene-2-carboxylic acid 3,5-difluoro-4-methanesulfonylamino-benzylamide] | 6.1 |  |
| CS(=O)(=O)Nc1c(F)cc(CNC(=O)c2cc(-c3ccc(Br)cc3)oc2C(F)(F)F)cc1F [Example 61, 5-(4-Bromo-phenyl)-2-trifluoromethyl-furan-3-carboxylic acid 3,5-difluoro-4-methanesulfonylamino-benzylamide] | 2.8 |  |
| C[C@@H](NC(=O)c1cc(-c2ccc(Br)cc2)oc1C(F)(F)F)c1cc(F)c(NS(C)(=O)=O)c(F)c1 [Example 62, 5-(4-Bromo-phenyl)-2-trifluoromethyl-furan-3-carboxylic acid [1-(3,5-difluoro-4-methanesulfonylamino-phenyl)-ethyl]-amide] | 0.44 |  |
| CC(C)(C)c1ccc(-c2ccc(C(=O)NCc3cc(F)c(NS(C)(=O)=O)c(F)c3)s2)cc1 [Example 63, 5-(4-tert-Butyl-phenyl)-thiophene-2-carboxylic acid 3,5-difluoro-4-methanesulfonylamino-benzylamide] | > 10 |  |
| CCOc1cccc(-c2ccc(C(=O)NCc3cc(F)c(NS(C)(=O)=O)c(F)c3)s2)c1 [Example 64, 5-(3-Ethoxy-phenyl)-thiophene-2-carboxylic acid 3,5-difluoro-4-methanesulfonylamino-benzylamide] | 4.1 |  |
| CS(=O)(=O)Nc1c(F)cc(CNC(=O)c2ccc(-c3cccc(C(F)(F)F)c3)s2)cc1F [Example 65, 5-(3-Trifluoromethyl-phenyl)-thiophene-2-carboxylic acid 3,5-difluoro-4-methanesulfonylamino-benzylamide] | 2.7 |  |
| CCCCOc1ccccc1-c1nc(C(=O)N[C@H](C)c2cc(F)c(NS(C)(=O)=O)c(F)c2)co1 [Example 66, 2-(2-Butoxy-phenyl)-oxazole-4-carboxylic acid [1-(3,5-difluoro-4-methanesulfonylamino-phenyl)-ethyl]-amide] | 0.75 |  |
| C[C@@H](NC(=O)c1coc(-c2cccc(-c3ccccc3)c2)n1)c1cc(F)c(NS(C)(=O)=O)c(F)c1 [Example 70, 2-Biphenyl-3-yl-oxazole-4-carboxylic acid [1-(3,5-difluoro-4-methanesulfonylamino-phenyl)-ethyl]-amide] | 0.87 |  |
| CCCOc1cccc(-c2nc(C(=O)N[C@H](C)c3cc(F)c(NS(C)(=O)=O)c(F)c3)co2)c1 [Example 71, 2-(3-Propoxy-phenyl)-oxazole-4-carboxylic acid [1-(3,5-difluoro-4-methanesulfonylamino-phenyl)-ethyl]-amide] | 1.2 |  |
| CC(C)c1cccc(-c2ccc(C(=O)N[C@H](C)c3cc(F)c(NS(C)(=O)=O)c(F)c3)s2)c1 [Example 72, 5-(3-Isopropyl-phenyl)-thiophene-2-carboxylic acid [1-(3,5-difluoro-4-methanesulfonylamino-phenyl)-ethyl]-amide] | 1.4 |  |
| C[C@@H](NC(=O)c1coc(-c2ccc(C(F)(F)F)cc2)n1)c1cc(F)c(NS(C)(=O)=O)c(F)c1 [Example 74, 2-(4-Trifluoromethyl-phenyl)-oxazole-4-carboxylic acid [1-(3,5-difluoro-4-methanesulfonylamino-phenyl)-ethyl]-amide] |  | 89 |
| C[C@@H](NC(=O)c1coc(-c2ccc(C(C)(C)C)cc2)n1)c1cc(F)c(NS(C)(=O)=O)c(F)c1 [Example 75, 2-(4-tort-Butyl-phenyl)-oxazole-4-carboxylic acid [1-(3,5-difluoro-4-methanesulfonylamino-phenyl)-ethyl]-amide] | 2.4 |  |
| CC(=O)c1cccc(-c2nc(C(=O)N[C@H](C)c3cc(F)c(NS(C)(=O)=O)c(F)c3)co2)c1 [Example 76, 2-(3-Acetyl-phenyl)-oxazole-4-carboxylic acid [1-(3,5-difluoro-4-methanesulfonylamino-phenyl)-ethyl]-amide] | > 10 |  |
| COc1ccc(C(C)C)cc1-c1nc(C(=O)N[C@H](C)c2cc(F)c(NS(C)(=O)=O)c(F)c2)co1 [Example 77, 2-(5-Isopropyl-2-methoxy-phenyl)-oxazole-4-carboxylic acid [1-(3,5-difluoro-4-methanesulfonylamino-phenyl)-ethyl]-amide] | 2 |  |
| C[C@@H](NC(=O)c1coc(-c2ccc(-c3ccccc3)cc2)n1)c1cc(F)c(NS(C)(=O)=O)c(F)c1 [Example 78, 2-Biphenyl-4-yl-oxazole-4-carboxylic acid [1-(3,5-difluoro-4-methanesulfonylamino-phenyl)-ethyl]-amide] | > 10 |  |
| C[C@@H](NC(=O)c1coc(-c2cccc(N(C)C)c2)n1)c1cc(F)c(NS(C)(=O)=O)c(F)c1 [Example 81, 2-(3-Dimethylamino-phenyl)-oxazole-4-carboxylic acid [1-(3,5-difluoro-4-methanesulfonylamino-phenyl)-ethyl]-amide] | 1 |  |
| C[C@@H](NC(=O)c1coc(-c2cccc(Cl)c2)n1)c1cc(F)c(NS(C)(=O)=O)c(F)c1 [Example 82, 2-(3-Chloro-phenyl)-oxazole-4-carboxylic acid [1-(3,5-difluoro-4-methanesulfonylamino-phenyl)-ethyl]-amide] | 0.65 |  |
